What was measured:
C8 cells = assay: ACK1 Cell Based Assay, test (C8) cell line; settings: 0.125% FCS, 20 to 24 h, cell viability (Cytotox One kit)
Experimental: The ACK1 cell based assay is designed to find inhibitors of ACK1 kinase activity which would be prime candidates for the development of anticancer drugs. […] This dependency was confirmed utilizing ACK1 specific siRNAs.
For this assay, test (C8) and control (HeLa) cell lines are seeded in 96 well tissue culture plates (BD Falcon) at a density of 2 to 4×10^4 in DMEM/F12 (C8) or DMEM (HeLa) with 0.125% FCS in the presence of ACK1 inhibitors (final DMSO concentration is 0.5%, all tissue culture media are from Cellgro). After 20 to 24 h incubation at 37° C. and 5% CO2, cell viability is determined using the Cytotox One kit (Promega) according to the manufacturer's instructions.

ACK1 = biological target: T1, ACK1 (Homo sapiens, UniProt Q07912); assay: ACK1 Enzymatic Assay; assay type: biochemical; settings: 5 μM ATP, ELISA phosphotyrosine readout
T1 construct: a fusion of an N-terminal (His)6 Tag with amino acids 117 to 489 of ACK1; (His)6 (N); made in house; host or cells: baculovirus infected Hi-5 insect cells
Experimental: IC50 values of inventive compounds may be assessed as follows. […] The substrate of for the reaction is ACK1 itself (autophosphorylation) and poly-Glutamic acid-Tyrosine (PGT (4:1), Sigma catalog #PO275). The PGT is coated to Nunc 96 well plates at 80 μg/mL overnight at 4° C. […] Test compounds are added in 10 μL DMSO, and the reaction is started by addition of 10 μL kinase in assay buffer. The reaction proceeds 2 h at room temperature. Next the plates are washed four times, and the level of tyrosine phosphorylation in a given well is quantified by standard ELISA assay utilizing a phosphotyrosine antibody (PY20, Pierce).

LCK = biological target: T2, LCK (Homo sapiens, UniProt P06239); assay: LCK-Homogeneous Time Resolved Fluorescent (HTRF) Kinase Assay; assay type: biochemical; settings: LCK KD GST (225-509)
T2 construct: 15 μL of LCK KD GST (225-509) for a final volume of 40 μL; GST
Experimental: The LCK HTRF assay begins with LCK in the presence of ATP phosphorylating the biotinylated peptide Gastrin. The reaction incubates for 90 min. To quench the assay detection reagents are added which both stop the reaction by diluting out the enzyme and chelating the metals due to the presence of EDTA. Once the detection reagents are added the assay incubates for 30 min to allow for equilibration of the detection reagents.
The final concentration of gastrin is 1.2 μM. The final concentration of ATP is 0.5 μM (Km app=[…]) and the final concentration of LCK is […]. Buffer conditions are as follows: 50 mM HEPES pH 7.5, 50 mM NaCl, 20 mM MgCl, 5 mM MnCl, 2 mM DTT, 0.05% BSA.
The assay is quenched and stopped with 160 μL of detection reagent. Detection reagents are as follows: Buffer made of 50 mM Tris, pH 7.5, 100 mM NaCl, 3 mM EDTA, 0.05% BSA, 0.1% Tween20. Added to this buffer prior to reading is Steptavidin allophycocyanin (SA-APC) at a final conc in the assay of 0.0004 mg/mL, and europilated anti-phosphotyrosine Ab (Eu-anti-PY) at a final conc of 0.025 nM.
The assay plate is read in either a Discovery or a RubyStar. The eu-anti-PY is excited at 320 nm and emits at 615 nm to excite the SA-APC which in turn emits at 655 nm. The ratio of SA-APC at 655 nm (excited due to close proximity to the Eu-anti-PY because of phosphorylation of the peptide) to free Eu-anti-PY at 615 nm will give substrate phosphorylation.

T1 sequence (Q07912 117-489): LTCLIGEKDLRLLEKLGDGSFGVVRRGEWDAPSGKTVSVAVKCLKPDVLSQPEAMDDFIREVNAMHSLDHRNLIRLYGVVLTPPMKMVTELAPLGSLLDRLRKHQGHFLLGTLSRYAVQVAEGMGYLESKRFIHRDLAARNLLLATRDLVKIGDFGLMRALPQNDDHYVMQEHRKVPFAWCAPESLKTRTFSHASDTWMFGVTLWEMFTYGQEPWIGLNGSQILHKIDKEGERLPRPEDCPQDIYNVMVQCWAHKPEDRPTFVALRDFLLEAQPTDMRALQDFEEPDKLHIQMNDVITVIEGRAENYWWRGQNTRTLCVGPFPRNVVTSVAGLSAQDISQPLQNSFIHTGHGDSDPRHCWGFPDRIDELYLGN
T2 sequence (P06239 225-509): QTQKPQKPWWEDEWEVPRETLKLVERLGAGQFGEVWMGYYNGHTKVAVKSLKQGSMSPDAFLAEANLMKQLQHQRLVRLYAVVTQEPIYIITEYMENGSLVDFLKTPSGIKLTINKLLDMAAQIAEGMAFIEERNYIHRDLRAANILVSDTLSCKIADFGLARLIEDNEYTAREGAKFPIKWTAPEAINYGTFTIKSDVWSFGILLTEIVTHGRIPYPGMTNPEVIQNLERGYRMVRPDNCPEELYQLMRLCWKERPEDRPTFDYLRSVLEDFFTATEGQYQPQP

Question: `O=C(NC1CC1)c1ccc(-c2[nH]c3ncnc(NCC4CCCO4)c3c2-c2ccccc2)cc1` (stereo not drawn) [Example 29, N-Cyclopropyl-4-{5-phenyl-4-[(tetrahydrofuran-2-ylmethyl)-amino]-7H-pyrrolo[2,3-d]pyrimidin-6-yl}-benzamide] was tested. Which IC50 (C8 cells) did it give?
Answer: 10 to 100 nM

Question: And the Ki (ACK1)?
Answer: < 10 nM

Question: What about the Ki (LCK) of the same molecule?
Answer: < 10 nM

Question: Which results are given for `COCCN(CCOC)S(=O)(=O)c1ccc(-c2[nH]c3ncnc(NCC4CCCO4)c3c2-c2ccccc2)cc1` (stereo not drawn) [Example 8, N,N-Bis-(2-methoxyethyl)-4-{5-phenyl-4-[(tetrahydrofuran-2-ylmethyl)-amino]-7H-pyrrolo[2,3-d]pyrimidin-6-yl}-benzenesulfonamide]?
Answer: IC50 (C8 cells): > 100 nM; Ki (ACK1): < 10 nM; Ki (LCK): < 10 nM

Question: What does the source list for `CO[C@@H]1CC[C@H]1CNc1ncnc2[nH]c(-c3ccc(OCCN(C)C)cc3)c(-c3ccccc3)c12` (mixture of isomers) [Example 35, trans/cis-{6-[4-(2-Dimethylamino-ethoxy)-phenyl]-5-phenyl-7H-pyrrolo[2,3-d]pyrimidin-4-yl}-(2-methoxy-cyclobutylmethyl)-amine]?
Answer: IC50 (C8 cells): > 100 nM; Ki (ACK1): 10 to 100 nM; Ki (LCK): < 10 nM

Question: For `COCCNS(=O)(=O)c1ccc(-c2[nH]c3ncnc(NCC4CCCO4)c3c2-c2ccccc2)cc1` (stereo not drawn) [Example 9, N-(2-Methoxyethyl)-4-{5-phenyl-4-[(tetrahydrofuran-2-ylmethyl)-amino]-7H-pyrrolo[2,3-d]pyrimidin-6-yl}-benzenesulfonamide], which IC50 (C8 cells) is on record?
Answer: 10 to 100 nM

Question: And the Ki (ACK1)?
Answer: < 10 nM

Question: And the Ki (LCK)?
Answer: < 10 nM

Question: What does the source list for `O=S(=O)(NCCO)c1ccc(-c2[nH]c3ncnc(NC[C@@H]4CCCO4)c3c2-c2ccccc2)cc1` [Example 18, N-(2-Hydroxy-ethyl)-4-{5-phenyl-4-[(tetrahydro-furan-2-ylmethyl)-amino]-7H-pyrrolo[2,3-d]pyrimidin-6-yl}-benzenesulfonamide]?
Answer: IC50 (C8 cells): > 100 nM; Ki (ACK1): < 10 nM; Ki (LCK): < 10 nM

Question: How did the IC50 (C8 cells) turn out when `c1ccc(-c2c(-c3ccc(OCCN4CCOCC4)cc3)[nH]c3ncnc(NCC4CCCO4)c23)cc1` (stereo not drawn) [Example 21, {6-[4-(2-Morpholin-4-yl-ethoxy)-phenyl]-5-phenyl-7H-pyrrolo[2,3-d]pyrimidin-4-yl}-(tetrahydro-furan-2-ylmethyl)-amine] was run?
Answer: 10 to 100 nM

Question: And the Ki (ACK1)?
Answer: < 10 nM

Question: And the Ki (LCK)?
Answer: < 10 nM

Question: For `O=S(=O)(c1ccc(-c2[nH]c3ncnc(NCC4CCCO4)c3c2-c2ccccc2)cc1)N1CCOCC1` (stereo not drawn) [Example 10, {6-[4-(Morpholin-4-sulfonyl)-phenyl]-5-phenyl-7H-pyrrolo[2,3-d]pyrimidin-4-yl}-(tetrahydrofuran-2-ylmethyl)-amine], which IC50 (C8 cells) is on record?
Answer: > 100 nM

Question: And the Ki (ACK1)?
Answer: < 10 nM

Question: And the Ki (LCK)?
Answer: < 10 nM

Question: With `CN(C)S(=O)(=O)c1ccc(-c2[nH]c3ncnc(NC[C@@H]4CCCO4)c3c2-c2ccccc2)cc1` [Example 5, N,N-Dimethyl-4-{5-phenyl-4-[(tetrahydro-furan-2-ylmethyl)-amino]-7H-pyrrolo[2,3-d]pyrimidin-6-yl}-benzenesulfonamide] as the molecule, how does the IC50 (C8 cells) read?
Answer: 10 to 100 nM

Question: What about the Ki (ACK1) of the same molecule?
Answer: < 10 nM

Question: What about the Ki (LCK) of the same molecule?
Answer: < 10 nM

Question: Which results are given for `O=C(O)CNS(=O)(=O)c1ccc(-c2[nH]c3ncnc(NC[C@@H]4CCCO4)c3c2-c2ccccc2)cc1` [Example 17]?
Answer: IC50 (C8 cells): > 100 nM; Ki (ACK1): < 10 nM; Ki (LCK): 10 to 100 nM

Question: `O=C(c1ccc(-c2[nH]c3ncnc(NCC4CCCO4)c3c2-c2ccccc2)cc1)N1CCOCC1` (stereo not drawn) [Example 28, Morpholin-4-yl-(4-{5-phenyl-4-[(tetrahydrofuran-2-ylmethyl)-amino]-7H-pyrrolo[2,3-d]pyrimidin-6-yl}-phenyl)-methanone] was tested. Which IC50 (C8 cells) did it give?
Answer: 10 to 100 nM

Question: And the Ki (ACK1)?
Answer: < 10 nM

Question: What about the Ki (LCK) of the same molecule?
Answer: > 100 nM

Question: How did the IC50 (C8 cells) turn out when `c1ccc(-c2c(-c3ccc(OCCN4CCCC4)cc3)[nH]c3ncnc(NCC4CCCO4)c23)cc1` (stereo not drawn) [Example 22, {5-Phenyl-6-[4-(2-pyrrolidin-1-yl-ethoxy)-phenyl]-7H-pyrrolo[2,3-d]pyrimidin-4-yl}-(tetrahydrofuran-2-ylmethyl)-amine] was run?
Answer: 10 to 100 nM

Question: And the Ki (ACK1)?
Answer: < 10 nM

Question: What about the Ki (LCK) of the same molecule?
Answer: < 10 nM

Question: Which IC50 (C8 cells) does the source give for `COCCNC(=O)c1ccc(-c2[nH]c3ncnc(NCC4CCCO4)c3c2-c2ccccc2)cc1` (stereo not drawn) [Example 30, N-(2-Methoxyethyl)-4-{5-phenyl-4-[(tetrahydrofuran-2-ylmethyl)-amino]-7H-pyrrolo[2,3-d]pyrimidin-6-yl}-benzamide] here?
Answer: 10 to 100 nM

Question: What about the Ki (ACK1) of the same molecule?
Answer: < 10 nM

Question: And the Ki (LCK)?
Answer: < 10 nM

Question: For `CN(C)CCOc1ccc(-c2[nH]c3ncnc(NC[C@H]4CCC[C@H]4N)c3c2-c2ccccc2)cc1` (relative stereo) [Example 38, cis-(2-Amino-cyclopentylmethyl)-{6-[4-(2-dimethylamino-ethoxy)-phenyl]-5-phenyl-7H-pyrrolo[2,3-d]pyrimidin-4-yl}-amine], which IC50 (C8 cells) is on record?
Answer: > 100 nM

Question: And the Ki (ACK1)?
Answer: > 100 nM

Question: What about the Ki (LCK) of the same molecule?
Answer: 10 to 100 nM

Question: Which results are given for `O=C(NCCN1CCOCC1)c1ccc(-c2[nH]c3ncnc(NCC4CCCO4)c3c2-c2ccccc2)cc1` (stereo not drawn) [Example 31, N-(2-Morpholin-4-yl-ethyl)-4-{5-phenyl-4-[(tetrahydrofuran-2-ylmethyl)-amino]-7H-pyrrolo[2,3-d]pyrimidin-6-yl}-benzamide]?
Answer: IC50 (C8 cells): > 100 nM; Ki (ACK1): < 10 nM; Ki (LCK): < 10 nM

Question: Which results are given for `CN(C)CCOc1ccc(-c2[nH]c3ncnc(NC[C@H]4CCC[C@H]4NS(C)(=O)=O)c3c2-c2ccccc2)cc1` (relative stereo) [Example 39, cis-N-[2-({6-[4-(2-Dimethylamino-ethoxy)-phenyl]-5-phenyl-7H-pyrrolo[2,3-d]pyrimidin-4-ylamino}-methyl)-cyclopentyl]-methanesulfonamide]?
Answer: IC50 (C8 cells): > 100 nM; Ki (ACK1): > 100 nM; Ki (LCK): < 10 nM

Question: What does the source list for `c1ccc(-c2[nH]c3ncnc(NCCN4CCOCC4)c3c2-c2ccccc2)cc1` [Example 1, (5,6-Diphenyl-7H-pyrrolo[2,3-d]pyrimidin-4-yl)-(2-morpholin-4-ylethyl)-amine]?
Answer: IC50 (C8 cells): > 100 nM; Ki (ACK1): 10 to 100 nM; Ki (LCK): 10 to 100 nM

Question: What does the source list for `CCN(CC)S(=O)(=O)c1ccc(-c2[nH]c3ncnc(NCC4CCCO4)c3c2-c2ccccc2)cc1` (stereo not drawn) [Example 7, N,N-Diethyl-4-{5-phenyl-4-[(tetrahydrofuran-2-ylmethyl)-amino]-7H-pyrrolo[2,3-d]pyrimidin-6-yl}-benzenesulfonamide]?
Answer: IC50 (C8 cells): > 100 nM; Ki (ACK1): < 10 nM; Ki (LCK): < 10 nM

Question: How did the IC50 (C8 cells) turn out when `O=S(=O)(NCCN1CCOCC1)c1ccc(-c2[nH]c3ncnc(NCC4CCCO4)c3c2-c2ccccc2)cc1` (stereo not drawn) [Example 11, N-(2-Morpholin-4-yl-ethyl)-4-{5-phenyl-4-[(tetrahydrofuran-2-ylmethyl)-amino]-7H-pyrrolo[2,3-d]pyrimidin-6-yl}-benzenesulfonamide] was run?
Answer: 10 to 100 nM

Question: What about the Ki (ACK1) of the same molecule?
Answer: < 10 nM

Question: What about the Ki (LCK) of the same molecule?
Answer: < 10 nM

Question: `CN(C)CCOc1ccc(-c2[nH]c3ncnc(NC[C@@H]4CCC[C@H]4NS(C)(=O)=O)c3c2-c2ccccc2)cc1` (relative stereo) [Example 41, trans-N-[2-({6-[4-(2-Dimethylamino-ethoxy)-phenyl]-5-phenyl-7H-pyrrolo[2,3-d]pyrimidin-4-ylamino}-methyl)-cyclopentyl]-methanesulfonamide] was tested. Which IC50 (C8 cells) did it give?
Answer: > 100 nM

Question: What about the Ki (ACK1) of the same molecule?
Answer: 10 to 100 nM

Question: And the Ki (LCK)?
Answer: < 10 nM

Question: What does the source list for `NS(=O)(=O)c1ccc(-c2[nH]c3ncnc(NC[C@@H]4CCCO4)c3c2-c2ccccc2)cc1` [Example 15, 4-{5-Phenyl-4-[(tetrahydrofuran-2-ylmethyl)-amino]-7H-pyrrolo[2,3-d]pyrimidin-6-yl}-benzenesulfonamide]?
Answer: IC50 (C8 cells): > 100 nM; Ki (ACK1): < 10 nM; Ki (LCK): 10 to 100 nM

Question: `c1ccc(-c2[nH]c3ncnc(NCC4CCCO4)c3c2-c2ccccc2)cc1` (stereo not drawn) [Example 2, (5,6-Diphenyl-7H-pyrrolo[2,3-d]pyrimidin-4-yl)-(tetrahydrofuran-2-ylmethyl)-amine] was tested. Which IC50 (C8 cells) did it give?
Answer: > 100 nM

Question: What about the Ki (ACK1) of the same molecule?
Answer: < 10 nM

Question: And the Ki (LCK)?
Answer: < 10 nM

Source: patent publication US7358250B2, “Pyrrolo[2,3-d]pyrimidines that modulate ACK1 activity” (Amgen Inc., priority 2004, dated 2008)
